One data set deals with HCT-116. Kind of data set: Antiproliferative activity against human HCT-116 cells measured after 72 hrs by SRB assay. It counts as functional, cell-based. Particulars: HCT-116, 72 h.
A further data set concerns A549. Kind of data set: Antiproliferative activity against human A549 cells measured after 72 hrs by SRB assay. The data set is classed as functional, cell-based. As to conditions: A549, 72 h.
For the next data set, the system named is SK-HEP1. Put plainly: Antiproliferative activity against human SK-HEP1 cells measured after 72 hrs by SRB assay. Particulars: SK-HEP1, 72 h. It counts as functional, cell-based.
Another data set has as its system MDA-MB-231. Kind of data set: Antiproliferative activity against human MDA-MB-231 cells measured after 72 hrs by SRB assay. It counts as functional, cell-based. Particulars: MDA-MB-231, 72 h.
Data set [1] in a line: Antiproliferative activity against human MRC5 cells measured after 72 hrs by SRB assay. It counts as toxicity, cell-based.
The next data set deals with SNU-638. Kind of data set: Antiproliferative activity against human SNU-638 cells measured after 72 hrs by SRB assay. It counts as functional, cell-based. Particulars: SNU-638, 72 h.
The nature of data set [2]: Selectivity index, ratio of IC50 for human MRC5 cells to IC50 for human HCT-116 cells. As to conditions: MRC5 cells versus HCT-116 cells, read-out: Selectivity Index. It counts as toxicity.
A short description of data set [3]: Selectivity index, ratio of IC50 for human MRC5 cells to IC50 for human A549 cells. The data set is classed as toxicity. Particulars: MRC5 cells versus A549 cells, read-out: Selectivity Index.
The nature of data set [4]: Selectivity index, ratio of IC50 for human MRC5 cells to IC50 for human SNU-638 cells. As to conditions: MRC5 cells versus SNU-638 cells, read-out: Selectivity Index. The data set is classed as toxicity.
A short description of data set [5]: Selectivity index, ratio of IC50 for human MRC5 cells to IC50 for human SK-HEP1 cells. The data set is classed as toxicity. As to conditions: MRC5 cells versus SK-HEP1 cells, read-out: Selectivity Index.
Data set [6] is described as follows: Selectivity index, ratio of IC50 for human MRC5 cells to IC50 for human MDA-MB-231 cells. Particulars: MRC5 cells versus MDA-MB-231 cells, read-out: Selectivity Index. The data set is classed as toxicity.

Consider `COc1cc([C@@H]2c3cc4c(cc3[C@@H](O[C@@H]3O[C@@H]5CO[C@@H](C)O[C@H]5[C@H](O)[C@H]3O)[C@H]3COC(=O)[C@H]23)OCO4)cc(OC)c1O` [ETOPOSIDE], for which the IC50 amounted to 1400 nM with HCT-116, 800 nM with A549, 700 nM in the data set with SK-HEP1 and 9700 nM in the data set on MDA-MB-231. Besides, in [1], the IC50 at 72 h was greater than 20000 nM.

Regarding `CCC[C@]1(O)C[C@H](O)[C@@H](C)[C@H]([C@H](C)[C@@H]2C/C=C/C=C/C=C/[C@H](O)C(=O)/C(C)=C/C(C)=C/[C@@H](O)/C(C)=C/CC(=O)O2)O1`, the IC50 in the data set with HCT-116 was 1300 nM; in the data set with A549 it was 7300 nM; with SNU-638, 2400 nM; in the data set on SK-HEP1 it was 2600 nM; in the data set with MDA-MB-231, 3400 nM. Besides, the IC50 at 72 h in data set [1] worked out at 18700 nM. Besides, the selectivity ratio in [2] worked out at 14.2; in [3], 2.6; in data set [4] it was 7.9; in data set [5], 7.2; in data set [6], 5.5.

Source of the values: ChEMBL document CHEMBL5137007, “Hamuramicin C, a Cytotoxic Bicyclic Macrolide Isolated from a Wasp Gut Bacterium” (J Nat Prod, 2022).
